Results: publication PMC11606603, “The membrane domains of mammalian adenylyl cyclases are lipid receptors” (eLife, 2024)
Values joined by “and” are separate entries in the source; they are usually repeats but may differ in a detail not shown here. Equal values may be shown once.

How the values were obtained:
Type in all cases: biochemical
[1] = target: T1, mAC1 (Homo sapiens, UniProt Q08828); assay: AC assay, Gsα-stimulated mAC1 in membranes from transfected HEK293 cells; conditions: 20 µM fatty acid; 300 nM Gsα; single experiments
T1 construct: Human mAC genes were from GenScript and fitted with a C-terminal FLAG-tag; FLAG (C); made in house; host or cells: HEK293, permanently transfected; membrane preparation
In short: (§1)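 cAMP formation was quantified by HTRF against a cAMP standard curve, with EC50 or IC50 derived by curve fitting. Reactions contained 1 mM ATP, 2 mM MgCl2, 3 mM creatine phosphate, 60 μg/ml creatine kinase and 50 mM MOPS pH 7.5, using membranes of stably transfected HEK293 cells carrying FLAG-tagged human AC.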

[2] = target: T2, mAC5 (Homo sapiens, UniProt O95622); assay: AC assay, Gsα-stimulated mAC5 in membranes from transfected HEK293 cells; conditions: 20µM fatty acid concentration
T2 construct: Human mAC genes were from GenScript and fitted with a C-terminal FLAG-tag; FLAG (C); made in house; host or cells: HEK293, permanently transfected; membrane preparation
In short: as §1

[3] = target: T3, mAC7 (Homo sapiens, UniProt P51828); assay: AC assay, Gsα-stimulated mAC7 in membranes from transfected HEK293 cells; conditions: Figure 5-figure supplement 2 left, 20 µM
T3 construct: Human mAC genes were from GenScript and fitted with a C-terminal FLAG-tag; FLAG (C); made in house; host or cells: HEK293, permanently transfected; membrane preparation
In short: as §1

[4] = target: T4, mAC9 (Homo sapiens, UniProt O60503); assay: AC assay, Gsα-stimulated mAC9 in membranes from transfected HEK293 cells; conditions: for mAC9 activity (%);(100% = Gsα stimulation) stimulated by 300nM Gsα: single experiments
T4 construct: Human mAC genes were from GenScript and fitted with a C-terminal FLAG-tag; FLAG (C); made in house; host or cells: HEK293, permanently transfected; membrane preparation
T4 sequence (O60503 whole entry): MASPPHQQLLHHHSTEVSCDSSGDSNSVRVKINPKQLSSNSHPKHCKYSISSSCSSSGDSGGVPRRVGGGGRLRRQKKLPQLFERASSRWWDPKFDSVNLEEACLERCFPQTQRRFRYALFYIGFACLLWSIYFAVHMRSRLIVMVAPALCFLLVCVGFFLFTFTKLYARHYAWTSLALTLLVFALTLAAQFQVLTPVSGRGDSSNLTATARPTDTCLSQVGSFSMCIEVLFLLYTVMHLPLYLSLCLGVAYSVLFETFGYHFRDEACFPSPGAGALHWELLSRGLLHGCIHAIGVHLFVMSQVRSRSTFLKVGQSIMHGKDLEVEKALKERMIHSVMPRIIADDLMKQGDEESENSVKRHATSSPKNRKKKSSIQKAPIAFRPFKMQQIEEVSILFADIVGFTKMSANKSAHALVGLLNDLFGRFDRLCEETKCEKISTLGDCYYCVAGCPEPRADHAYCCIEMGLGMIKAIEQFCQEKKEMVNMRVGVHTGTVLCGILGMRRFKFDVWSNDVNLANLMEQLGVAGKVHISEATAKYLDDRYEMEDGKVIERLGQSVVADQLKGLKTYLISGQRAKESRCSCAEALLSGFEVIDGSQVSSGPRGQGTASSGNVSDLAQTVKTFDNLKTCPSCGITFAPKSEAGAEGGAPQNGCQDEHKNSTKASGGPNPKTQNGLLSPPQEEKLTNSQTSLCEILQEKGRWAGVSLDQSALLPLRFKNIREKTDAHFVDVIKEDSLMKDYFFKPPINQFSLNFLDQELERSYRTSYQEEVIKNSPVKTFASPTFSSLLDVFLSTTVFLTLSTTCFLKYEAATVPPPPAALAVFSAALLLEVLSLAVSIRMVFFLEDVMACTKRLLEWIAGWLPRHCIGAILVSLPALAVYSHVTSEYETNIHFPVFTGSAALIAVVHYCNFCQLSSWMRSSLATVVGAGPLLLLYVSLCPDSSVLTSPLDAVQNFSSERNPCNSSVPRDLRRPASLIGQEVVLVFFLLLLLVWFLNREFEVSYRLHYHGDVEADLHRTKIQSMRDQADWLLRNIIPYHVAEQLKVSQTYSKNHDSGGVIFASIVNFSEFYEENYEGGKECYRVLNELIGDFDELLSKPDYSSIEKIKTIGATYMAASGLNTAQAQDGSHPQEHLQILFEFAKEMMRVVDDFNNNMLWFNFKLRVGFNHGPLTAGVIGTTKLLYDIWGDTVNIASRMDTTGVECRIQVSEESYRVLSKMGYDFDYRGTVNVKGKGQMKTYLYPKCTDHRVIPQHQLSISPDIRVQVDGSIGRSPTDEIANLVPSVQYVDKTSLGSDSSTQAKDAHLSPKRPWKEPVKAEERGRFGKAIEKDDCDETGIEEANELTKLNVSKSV
T4 sequence (P63092 2-394 Q227L partner): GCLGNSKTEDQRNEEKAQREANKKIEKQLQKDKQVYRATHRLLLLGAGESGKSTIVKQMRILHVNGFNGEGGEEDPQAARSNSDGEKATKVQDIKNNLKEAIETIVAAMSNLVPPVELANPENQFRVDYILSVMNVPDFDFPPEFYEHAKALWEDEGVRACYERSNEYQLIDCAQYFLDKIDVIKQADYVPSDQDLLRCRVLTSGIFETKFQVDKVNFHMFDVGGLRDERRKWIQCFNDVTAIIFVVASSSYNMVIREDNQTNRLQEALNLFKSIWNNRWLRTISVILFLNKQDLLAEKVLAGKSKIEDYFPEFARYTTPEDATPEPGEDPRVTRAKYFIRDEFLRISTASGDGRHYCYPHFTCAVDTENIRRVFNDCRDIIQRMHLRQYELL
In short: as §1

[5] = target: T5, mAC3 (Homo sapiens, UniProt O60266); assay: AC assay, Gsα-stimulated mAC3 in membranes from transfected HEK293 cells
T5 construct: Human mAC genes were from GenScript and fitted with a C-terminal FLAG-tag; FLAG (C); made in house; host or cells: HEK293, permanently transfected; membrane preparation
T5 sequence (O60266 whole entry): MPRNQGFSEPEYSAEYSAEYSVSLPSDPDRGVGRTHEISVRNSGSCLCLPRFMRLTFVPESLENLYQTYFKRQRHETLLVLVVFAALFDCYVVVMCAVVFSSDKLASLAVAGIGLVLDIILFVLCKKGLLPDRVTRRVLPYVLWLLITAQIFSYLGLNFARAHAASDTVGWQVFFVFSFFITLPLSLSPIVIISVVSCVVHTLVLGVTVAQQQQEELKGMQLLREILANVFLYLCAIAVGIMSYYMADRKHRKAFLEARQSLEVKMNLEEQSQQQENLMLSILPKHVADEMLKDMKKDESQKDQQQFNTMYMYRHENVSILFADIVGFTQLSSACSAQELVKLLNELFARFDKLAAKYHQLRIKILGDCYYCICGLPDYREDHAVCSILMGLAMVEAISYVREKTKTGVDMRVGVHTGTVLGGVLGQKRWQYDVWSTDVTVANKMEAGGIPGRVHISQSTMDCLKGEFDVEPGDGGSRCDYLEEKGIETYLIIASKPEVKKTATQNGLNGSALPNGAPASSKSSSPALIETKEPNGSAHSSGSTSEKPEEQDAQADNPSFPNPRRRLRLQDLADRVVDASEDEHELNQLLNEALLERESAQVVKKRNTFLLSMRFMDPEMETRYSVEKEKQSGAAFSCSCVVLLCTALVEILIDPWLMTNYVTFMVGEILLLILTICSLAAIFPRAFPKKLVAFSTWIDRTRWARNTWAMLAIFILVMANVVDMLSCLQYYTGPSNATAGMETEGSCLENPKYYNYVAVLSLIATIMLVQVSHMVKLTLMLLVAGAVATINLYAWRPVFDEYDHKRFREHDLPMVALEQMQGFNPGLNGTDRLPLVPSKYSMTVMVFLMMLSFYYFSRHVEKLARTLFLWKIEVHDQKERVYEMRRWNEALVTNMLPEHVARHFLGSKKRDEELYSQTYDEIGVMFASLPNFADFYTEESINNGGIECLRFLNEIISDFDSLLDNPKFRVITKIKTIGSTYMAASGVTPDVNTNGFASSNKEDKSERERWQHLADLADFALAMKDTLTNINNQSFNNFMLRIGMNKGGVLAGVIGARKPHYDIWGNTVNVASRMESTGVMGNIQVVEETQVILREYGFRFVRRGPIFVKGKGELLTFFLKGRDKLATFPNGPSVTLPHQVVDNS
T5 sequence (P63092 whole entry Q227L partner): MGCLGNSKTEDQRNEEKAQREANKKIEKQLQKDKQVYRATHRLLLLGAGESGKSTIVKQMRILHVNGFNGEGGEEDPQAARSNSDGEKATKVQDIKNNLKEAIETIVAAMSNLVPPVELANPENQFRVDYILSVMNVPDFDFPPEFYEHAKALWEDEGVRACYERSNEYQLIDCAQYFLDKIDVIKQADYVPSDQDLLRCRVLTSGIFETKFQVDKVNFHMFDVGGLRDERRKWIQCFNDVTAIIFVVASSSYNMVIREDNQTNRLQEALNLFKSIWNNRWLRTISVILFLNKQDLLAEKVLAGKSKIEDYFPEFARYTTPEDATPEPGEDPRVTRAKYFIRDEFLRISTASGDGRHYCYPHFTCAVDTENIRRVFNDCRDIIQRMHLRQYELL
In short: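 EC50 and IC50 values come from cAMP production, read with a Cisbio cAMP kit and converted via a standard curve. Assay mix held 1 mM ATP, 2 mM MgCl2, 3 mM creatine phosphate and 60 μg/ml creatine kinase in 50 mM MOPS pH 7.5, using transfected HEK293 membranes.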

[6] = target: T6, mAC2 (Homo sapiens, UniProt Q08462); assay: AC assay, Gsα-stimulated mAC2 in membranes from transfected HEK293 cells
T6 construct: Human mAC genes were from GenScript and fitted with a C-terminal FLAG-tag; FLAG (C); made in house; host or cells: HEK293, permanently transfected; membrane preparation
T6 sequence (Q08462 whole entry): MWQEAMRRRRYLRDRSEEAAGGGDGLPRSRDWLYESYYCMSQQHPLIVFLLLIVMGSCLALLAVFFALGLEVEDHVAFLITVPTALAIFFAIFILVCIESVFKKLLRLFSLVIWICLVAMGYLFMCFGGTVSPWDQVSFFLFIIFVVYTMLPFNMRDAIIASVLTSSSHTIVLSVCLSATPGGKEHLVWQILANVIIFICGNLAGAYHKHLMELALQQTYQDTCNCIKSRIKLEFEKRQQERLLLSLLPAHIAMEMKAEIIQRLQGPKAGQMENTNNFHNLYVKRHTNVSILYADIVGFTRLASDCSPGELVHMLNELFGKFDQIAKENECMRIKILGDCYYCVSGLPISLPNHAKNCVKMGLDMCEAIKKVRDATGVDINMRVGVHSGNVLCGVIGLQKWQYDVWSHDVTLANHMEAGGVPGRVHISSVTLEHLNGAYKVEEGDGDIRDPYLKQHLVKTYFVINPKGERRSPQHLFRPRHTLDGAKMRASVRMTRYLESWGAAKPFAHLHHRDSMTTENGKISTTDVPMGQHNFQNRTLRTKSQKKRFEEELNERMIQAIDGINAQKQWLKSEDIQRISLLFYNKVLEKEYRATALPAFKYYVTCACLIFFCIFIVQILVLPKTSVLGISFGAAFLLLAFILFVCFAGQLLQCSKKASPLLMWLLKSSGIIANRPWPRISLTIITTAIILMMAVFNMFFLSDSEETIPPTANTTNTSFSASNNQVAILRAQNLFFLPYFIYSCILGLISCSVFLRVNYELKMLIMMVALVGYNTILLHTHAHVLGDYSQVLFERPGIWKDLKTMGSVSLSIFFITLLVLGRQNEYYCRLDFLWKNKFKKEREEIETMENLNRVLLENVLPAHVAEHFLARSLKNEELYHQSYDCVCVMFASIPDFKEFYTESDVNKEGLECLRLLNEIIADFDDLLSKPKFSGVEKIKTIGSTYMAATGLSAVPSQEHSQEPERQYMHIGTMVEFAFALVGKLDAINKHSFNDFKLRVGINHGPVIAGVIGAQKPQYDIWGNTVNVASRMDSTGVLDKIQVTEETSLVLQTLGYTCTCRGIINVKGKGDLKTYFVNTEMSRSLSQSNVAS
T6 sequence (P63092 2-394 Q227L partner): as the sequence (P63092 2-394 Q227L partner) above
In short: as §1

[7] = target: T7, mAC8 (Homo sapiens, UniProt P40145); assay: AC assay, Gsα-stimulated mAC8 in membranes from transfected HEK293 cells; conditions: 20µM fatty acid concentration
T7 construct: Human mAC genes were from GenScript and fitted with a C-terminal FLAG-tag; FLAG (C); made in house; host or cells: HEK293, permanently transfected; membrane preparation
Method: hAC sequences were from NCBI were: ADCY1: NM_021116.3; ADCY2: NM_020546.2; ADCY3: NM_004036.4; ADCY4: NM_001198568.2; ADCY5: NM_183357.2; ADCY6: NM_015270.4; ADCY7: NM_001114.4; ADCY8: NM_001115.2; ADCY9: NM_001116.3. Human mAC genes were from GenScript and fitted with a C-terminal FLAG-tag. […] The gene was synthesized by GenScript. HEK293 cells were maintained in Dulbeccos Modified Eagle Medium (DMEM) with 10% fetal bovine serum at 37°C and 5% CO2. Transfection with AC plasmids was with PolyJet (SignaGen, Frederick, MD, USA). Permanent cell lines were generated by selection for 7 days with 600 µg/ml G418 and maintained with 300 µg/ml For membrane preparation, cells were tyrpsinized, collected by centrifugation (3000 × g, 5 min) and lysed and homogenized in 20 mM HEPES, pH 7.5, 1 mM Ethylenediaminetetraacetic acid (EDTA), 2 mM MgCl2, 1 mM Dithiothreitol (DTT), one tablet of cOmplete, EDTA-free (per 50 ml) and 250 mM sucrose by 20 strokes in a potter homogenizer on ice. Debris was removed (5 min at 1000 × g, 0°C), membranes were collected at 100,000 × g, 60 min at 0°C, suspended and stored at −80°C in 20 mM MOPS, pH 7.5, 0.5 mM EDTA, 2 mM MgCl2. […] Three cerebral cortices were dissected and homogenized in 4.5 ml cold 48 mM Tris–HCl, pH 7.4, 12 mM MgC1_2, and 0.1 mM Ethylene glycol-bis(β-aminoethyl ether)-N,N,N′,N′-tetraacetic acid (EGTA) with a Polytron hand disperser (Kinematica AG, Switzerland). […] The pellet was washed once with 5 ml 1 mM KHCO3. The final suspension in 2 ml 1 mM KHCO3 was stored in aliquots at −80°C.
In a volume of 10 μl, AC activities were measured using 1 mM ATP, 2 mM MgCl2, 3 mM creatine phosphate, 60 μg/ml creatine kinase, and 50 mM MOPS pH 7.5. The cAMP assay kit from Cisbio (Codolet, France) was used for detection according to the supplier’s instructions. For each assay, a cAMP standard curve was established. EC50 and IC50 values were calculated by GraphPad Prism version 8.4.3 for Windows, GraphPad Software, San Diego, CA, USA, https://www.graphpad.com .

[8] = target: T8, mAC6 (Homo sapiens, UniProt O43306); assay: AC assay, Gsα-stimulated mAC6 in membranes from transfected HEK293 cells; conditions: 20µM fatty acid concentration
T8 construct: Human mAC genes were from GenScript and fitted with a C-terminal FLAG-tag; FLAG (C); made in house; host or cells: HEK293, permanently transfected; membrane preparation
In short: as §1

[9] = target: T9, mAC4 (Homo sapiens, UniProt Q8NFM4); assay: AC assay, Gsα-stimulated mAC4 in membranes from transfected HEK293 cells; conditions: 20 µM fatty acid; 300 nM Gsα; single experiments
T9 construct: Human mAC genes were from GenScript and fitted with a C-terminal FLAG-tag; FLAG (C); made in house; host or cells: HEK293, permanently transfected; membrane preparation
T9 sequence (Q8NFM4 1-1077): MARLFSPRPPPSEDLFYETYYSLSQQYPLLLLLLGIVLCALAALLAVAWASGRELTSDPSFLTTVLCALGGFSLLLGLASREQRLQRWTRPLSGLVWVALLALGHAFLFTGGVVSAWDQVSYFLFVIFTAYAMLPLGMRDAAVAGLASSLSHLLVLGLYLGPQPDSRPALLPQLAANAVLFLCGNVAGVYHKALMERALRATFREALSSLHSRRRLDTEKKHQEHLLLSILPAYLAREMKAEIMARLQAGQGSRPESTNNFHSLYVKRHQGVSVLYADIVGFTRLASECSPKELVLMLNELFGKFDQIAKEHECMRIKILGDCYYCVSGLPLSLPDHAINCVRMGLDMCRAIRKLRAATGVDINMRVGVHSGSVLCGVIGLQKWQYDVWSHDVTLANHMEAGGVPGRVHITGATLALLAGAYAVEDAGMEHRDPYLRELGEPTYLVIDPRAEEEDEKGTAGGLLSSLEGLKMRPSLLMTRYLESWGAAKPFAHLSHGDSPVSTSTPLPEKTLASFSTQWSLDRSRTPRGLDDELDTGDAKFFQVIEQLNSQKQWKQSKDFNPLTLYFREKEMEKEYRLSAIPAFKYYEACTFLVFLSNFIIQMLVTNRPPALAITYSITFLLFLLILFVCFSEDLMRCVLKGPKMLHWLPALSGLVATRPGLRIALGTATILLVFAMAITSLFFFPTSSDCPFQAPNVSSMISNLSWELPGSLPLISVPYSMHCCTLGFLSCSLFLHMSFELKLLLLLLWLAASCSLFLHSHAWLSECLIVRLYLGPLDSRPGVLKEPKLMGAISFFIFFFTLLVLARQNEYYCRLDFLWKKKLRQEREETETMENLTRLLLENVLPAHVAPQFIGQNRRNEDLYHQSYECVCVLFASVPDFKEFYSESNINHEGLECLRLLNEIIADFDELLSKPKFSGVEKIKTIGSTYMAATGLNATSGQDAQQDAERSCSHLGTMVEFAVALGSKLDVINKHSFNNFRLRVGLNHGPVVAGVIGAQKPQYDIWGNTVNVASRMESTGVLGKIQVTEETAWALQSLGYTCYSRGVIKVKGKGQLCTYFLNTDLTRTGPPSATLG
In short: as §1

CCCCCC/C=C\CCCCCCCCCC(=O)O [cis-Vaccenic acid, cis-Vaccenic ((11E)-octadecenoic) acid]
mAC1 activity [%] (100% = 300nM Gsα stimulation); 20µM fatty acid concentration [1]: 61% and 67% and 86%
mAC5 activity [%] (100% = 300nM Gsα stimulation) [2]: 124% and 95%
mAC7 activity [%] (100% = 300nM Gsα stimulation); 20µM fatty acid concentration [3]: 148% and 179%
mAC9 activity (%);(100% = Gsα stimulation) stimulated by 300nM Gsα ([4]; 6 µM fatty acid): 116% and 153% and 119% and 113%
mAC9 activity (%);(100% = Gsα stimulation) stimulated by 300nM Gsα ([4]; 8 µM fatty acid): 174%
EC50 ([4]; enhancement of 300 nM Gsα-stimulated activity, read-out: EC50 for mAC9): 8.5 µM
Effect of lipid on 300 nM Gsα-stimulated mAC3 ([5]; 20 µM, in words): efficient enhancers
mAC3 activity [%] (100% = 300nM Gsα stimulation) ([5]; fatty acid 20 µM, individual experiments): 429% and 498% and 460% and 363% and 411%
Effect of lipid on 300 nM Gsα-stimulated mAC2 ([6]; 20 µM, in words): doubled
mAC2 activity [%] (100% = 300nM Gsα stimulation); 20µM fatty acid concentration ([6]; Figure 5-figure supplement 1 left, 20 µM): 243% and 149% and 146% and 170% and 233%
mAC2 activity (%);(100% = Gsα stimulation) stimulated by 300nM Gsα ([6]; cis-Vaccenic acid 1 µM): 120% and 97% and 119% and 112% and 115%
mAC2 activity (%);(100% = Gsα stimulation) stimulated by 300nM Gsα ([6]; cis-Vaccenic acid 3 µM): 117% and 107% and 130% and 128% and 95%
mAC2 activity (%);(100% = Gsα stimulation) stimulated by 300nM Gsα ([6]; cis-Vaccenic acid 6 µM): 93% and 112% and 130% and 120% and 121%
mAC2 activity (%);(100% = Gsα stimulation) stimulated by 300nM Gsα ([6]; cis-Vaccenic acid 10 µM): 141% and 119% and 166% and 123% and 169%
mAC2 activity (%);(100% = Gsα stimulation) stimulated by 300nM Gsα ([6]; cis-Vaccenic acid 20 µM): 146% and 170% and 233% and 243% and 149%
EC50 ([6]; enhancement of 300 nM Gsα-stimulated activity): 10.6 µM
activity at 0.3 µM ([6]; read-out: mAC2 activity (%);(100% = Gsα stimulation) stimulated by 300nM Gsα, cis-Vaccenic acid 0.3 µM): 100%
mAC8 activity [%] (100% = 300nM Gsα stimulation) [7]: 107% and 123%
mAC6 activity [%] (100% = 300nM Gsα stimulation) [8]: 91% and 114%
mAC4 activity [%] (100% = 300nM Gsα stimulation); 20µM fatty acid concentration [9]: 78% and 66% and 107%
